# Data published in US20060019933A1, “Process for preparing stabilized vitamin D” (priority 2004, published 2006).
# Experiments:
# vitamin D receptor = biological target: T1, vitamin D receptor (Homo sapiens, UniProt P11473); settings: agonism at the vitamin D receptor without 1α-hydroxylation; cited from earlier work
# T1 sequence (P11473 1-427): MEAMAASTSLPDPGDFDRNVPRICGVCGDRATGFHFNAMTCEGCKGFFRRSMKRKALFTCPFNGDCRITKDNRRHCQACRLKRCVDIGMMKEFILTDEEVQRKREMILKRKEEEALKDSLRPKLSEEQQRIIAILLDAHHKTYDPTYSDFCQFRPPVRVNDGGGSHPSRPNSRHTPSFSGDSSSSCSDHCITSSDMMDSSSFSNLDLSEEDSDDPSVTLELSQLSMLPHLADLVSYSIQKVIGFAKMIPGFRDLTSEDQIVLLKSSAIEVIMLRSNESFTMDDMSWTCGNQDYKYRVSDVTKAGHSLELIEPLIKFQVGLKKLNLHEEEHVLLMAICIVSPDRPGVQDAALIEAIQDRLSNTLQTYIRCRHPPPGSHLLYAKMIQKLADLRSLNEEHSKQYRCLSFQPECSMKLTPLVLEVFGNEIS
# [1] = Chemical stability of neat, crystalline vitamin D3 at 40° C. and various humidities; format: physicochemical; settings: one week
# Experimental: Stability of neat, crystalline vitamin D3 was investigated at 40° C. and 5%, 20%, 50%, 75% relative humidity (% RH) over the course of one week. This experiment was used as a baseline for comparison of vitamin D3 stability after formulation as indicated above. A pronounced dependence of degradation rate upon relative humidity was observed, as depicted in FIG. 1. Under low humidity conditions, loss of active occurred at a rate of 0.58%/day and 0.76%/day at 5% RH and 20% RH, respectively.
# [2] = Stability of amorphous vitamin D3 cast as a thin film; format: physicochemical
# Description: In an additional experiment, vitamin D3 was cast as a thin film by evaporating a solution of vitamin D in ethyl acetate and the stability of this amorphous form of vitamin D was also investigated. […] The results of this and the previous experiment highlight the inherently low stability of vitamin D and the impact of both humidity and physical form (crystalline vs. amorphous) on degradation rates.
Compound,"intrinsic activity, fold lower than that of 1α,25-dihydroxy-cholecalciferol (vitamin D receptor)",rate of loss of active ([1]; 5% RH) [%/day],rate of loss of active ([1]; 20% RH) [%/day],degradation rate ([1]; 50% RH) [%/day],degradation rate ([1]; 75% RH) [%/day],degradation after 3 days ([2]; 25° C.),degradation after 3 days ([2]; 40° C.),degradation after 3 days ([2]; 40° C./75% RH)
C=C1CC[C@H](O)C/C1=C/C=C1\CCC[C@]2(C)[C@@H]([C@H](C)CCCC(C)(C)O)CC[C@@H]12 [25-hydroxy-cholecalciferol],about 100 fold,–,–,–,–,–,–,–
"C=C1CC[C@H](O)C/C1=C/C=C1\CCC[C@]2(C)[C@@H]([C@H](C)CCCC(C)C)CC[C@@H]12 [vitamin D3, cholecalciferol]",–,0.58,0.76,5.5,10.8,Essentially complete degradation,Essentially complete degradation,Essentially complete degradation
